# Tests used:
# Assay in all cases: relative viability (nuclei count vs DMSO), 5 days (fraction); higher = more cells survive
# [1] = compound: Cc1ccc(NC(=O)c2ccc(CN3CCN(C)CC3)cc2)cc1Nc1nc(-c2cccnc2)cs1 [Masitinib] + Nc1ncn([C@H]2C[C@H](O)[C@@H](CO)O2)c(=O)n1 [Decitabine] (partner 2 µM)
# Method in brief: (§1)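 One day after seeding in 1536-well plates, lung cancer cell lines were dosed by pin tool. Dosing was either single-drug or a fixed anchor-drug dose plus five library-drug doses (not always all listed) in √10 steps. After 5 days, nuclei were stained in one fix-and-stain step and counted on 4× images, and relative viability is the nuclei count of treated wells over that of vehicle wells, given as the median of duplicate plates.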
# [2] = compound: CC1=CC(=CC=C1)NC2=NC(=CS2)C3=CC=NC=C3 + C[C@]1(O)C[C@@H](c2nc(-c3ccc4ccc(-c5ccccc5)nc4c3)c3c(N)nccn32)C1 [Linsitinib] (partner 1 µM)
# Method in brief: as §1
# [3] = compound: Cc1ccc(NC(=O)c2ccc(CN3CCN(C)CC3)cc2)cc1Nc1nc(-c2cccnc2)cs1 [Masitinib] + CC(=O)c1c(C)c2cnc(Nc3ccc(N4CCNCC4)cn3)nc2n(C2CCCC2)c1=O [Palbociclib] (partner 0.5 µM)
# Method in brief: as §1
# [4] = compound: CC1=CC(=CC=C1)NC2=NC(=CS2)C3=CC=NC=C3 + C[C@@H](Oc1cc(-c2cnn(C3CCNCC3)c2)cnc1N)c1c(Cl)ccc(F)c1Cl [Crizotinib] (partner 1 µM)
# Method in brief: as §1
Cell Line,relative viability ([1]; first compound 0.01 µM),relative viability ([1]; first compound 0.03162 µM),relative viability ([1]; first compound 0.1 µM),relative viability ([1]; first compound 0.3162 µM),relative viability ([1]; first compound 1 µM),relative viability ([2]; first compound 0.08 µM),relative viability ([2]; first compound 0.253 µM),relative viability ([2]; first compound 0.8 µM),relative viability ([2]; first compound 2.53 µM),relative viability ([2]; first compound 8 µM),relative viability ([3]; first compound 0.01 µM),relative viability ([3]; first compound 0.03162 µM),relative viability ([3]; first compound 0.1 µM),relative viability ([3]; first compound 0.3162 µM),relative viability ([3]; first compound 1 µM),relative viability ([4]; first compound 0.08 µM),relative viability ([4]; first compound 0.253 µM),relative viability ([4]; first compound 0.8 µM),relative viability ([4]; first compound 2.53 µM),relative viability ([4]; first compound 8 µM)
HCC-827,0.296,0.342,0.295,0.27,0.312,0.914,0.874,0.969,0.906,0.907,0.395,0.466,0.389,0.613,0.441,0.945,0.91,0.854,0.89,0.856
HOP-62,0.22,0.222,0.23,0.201,0.212,0.984,0.706,1.03,1.16,0.725,0.455,0.447,0.59,0.438,0.506,0.935,0.788,0.944,0.503,0.93
LC-2-ad,0.837,0.795,0.85,0.795,0.894,0.764,0.821,0.684,0.788,0.739,0.494,0.474,0.544,0.47,0.503,0.45,0.419,0.394,0.397,0.396
LCLC-97TM1,0.273,0.233,0.281,0.167,0.225,,,0.212,0.207,0.168,0.192,0.15,0.25,0.285,0.208,,,0.744,0.366,0.42
LCLC-103H,,0.723,0.735,0.748,0.711,0.942,0.967,1.01,1.24,1.03,,0.471,0.458,0.511,0.475,0.918,0.924,0.902,1.02,0.888
LK-2,0.342,0.261,0.366,0.249,0.281,0.581,0.778,0.729,0.413,0.427,0.691,0.697,0.666,0.76,0.762,0.261,0.197,0.229,,0.246
LOU-NH91,0.797,0.754,0.792,0.785,0.783,0.82,0.925,0.903,0.979,0.769,0.564,0.47,0.57,0.562,0.527,0.706,0.759,0.717,0.728,0.693
LU99A,0.921,0.916,0.901,0.997,0.986,,0.669,0.532,0.554,0.538,0.431,0.417,0.419,0.428,0.418,,0.546,0.717,0.52,0.718
LXF-289,0.332,0.394,0.435,0.369,0.41,0.971,0.933,0.955,0.986,0.85,0.553,0.6,0.655,0.627,0.595,0.775,0.785,0.827,0.836,0.751
NCI-H23,0.312,0.346,0.341,0.274,0.262,0.491,0.607,0.639,0.584,0.583,0.439,0.482,0.598,0.575,0.527,0.417,0.469,0.474,0.531,0.526
NCI-H322M,0.626,0.733,0.612,0.719,0.706,0.832,0.937,0.791,1.12,0.771,0.483,0.487,0.426,0.531,0.454,0.846,0.808,0.775,0.859,0.834
NCI-H358,0.184,0.195,0.243,0.189,0.192,0.733,0.798,0.639,0.8,0.666,0.123,0.138,0.15,0.133,0.136,0.509,0.576,0.562,0.542,0.512
NCI-H441,0.214,0.23,0.262,0.233,0.244,0.497,0.574,0.708,0.523,0.497,0.232,0.211,0.262,0.188,0.191,0.751,0.831,0.791,0.69,0.663
NCI-H460,0.307,0.378,0.45,0.455,0.462,0.736,0.95,0.605,0.862,0.525,0.0985,0.105,0.14,0.071,0.126,0.753,0.827,0.913,1,0.811
NCI-H520,0.482,0.482,0.513,0.59,0.437,0.91,0.935,0.975,0.986,1,0.27,0.21,0.263,0.243,0.197,0.741,0.9,0.81,0.839,0.939
NCI-H647,0.369,0.318,0.487,0.408,0.364,1.01,0.992,1.05,1.1,0.815,0.419,0.369,0.49,0.325,0.375,1.04,0.909,0.953,1.02,0.86
NCI-H650,0.307,0.343,0.308,0.298,0.36,0.659,0.739,1.13,,1.06,0.33,0.332,0.331,0.318,0.318,0.683,0.724,0.615,,0.914

Cell Line,relative viability ([1]; first compound 0.01 µM),relative viability ([1]; first compound 0.03162 µM),relative viability ([1]; first compound 0.1 µM),relative viability ([1]; first compound 0.3162 µM),relative viability ([1]; first compound 1 µM),relative viability ([2]; first compound 0.08 µM),relative viability ([2]; first compound 0.253 µM),relative viability ([2]; first compound 0.8 µM),relative viability ([2]; first compound 2.53 µM),relative viability ([2]; first compound 8 µM),relative viability ([3]; first compound 0.01 µM),relative viability ([3]; first compound 0.03162 µM),relative viability ([3]; first compound 0.1 µM),relative viability ([3]; first compound 0.3162 µM),relative viability ([3]; first compound 1 µM),relative viability ([4]; first compound 0.08 µM),relative viability ([4]; first compound 0.253 µM),relative viability ([4]; first compound 0.8 µM),relative viability ([4]; first compound 2.53 µM),relative viability ([4]; first compound 8 µM)
NCI-H661,0.502,0.552,0.515,0.535,0.545,0.589,0.577,0.577,0.63,0.643,0.331,0.374,0.363,0.372,0.377,0.974,1,0.925,0.935,0.908
NCI-H727,0.808,1.03,0.763,0.729,0.781,0.283,0.283,0.268,0.199,0.343,0.599,0.692,0.668,0.621,0.618,0.621,0.737,0.922,0.759,0.575
NCI-H838,0.446,0.475,0.432,0.445,0.44,0.882,0.937,0.855,0.868,0.651,0.205,0.182,0.22,0.192,0.244,0.817,0.661,0.749,0.819,0.682
NCI-H1355,0.351,0.345,0.393,0.341,0.367,0.713,0.584,0.579,0.673,0.568,0.37,0.601,0.4,0.292,0.343,1.02,0.781,0.705,0.701,0.61
NCI-H1437,0.559,0.565,0.582,0.524,0.527,0.945,1.01,0.913,1,0.759,0.25,0.32,0.248,0.302,0.305,0.938,1.03,0.91,1.06,0.926
NCI-H1651,0.551,0.674,0.595,0.598,0.584,0.958,0.955,0.919,0.999,0.926,0.388,0.505,0.419,0.535,0.523,0.854,0.869,0.897,0.851,0.897
NCI-H1666,0.698,0.665,0.703,0.626,0.647,0.781,0.614,0.432,0.474,0.41,0.665,0.63,0.696,0.628,0.617,0.722,0.567,0.526,0.567,0.386
NCI-H1734,0.539,0.485,0.546,0.522,0.483,0.828,0.981,0.869,0.835,0.719,0.362,0.327,0.393,0.394,0.335,0.665,0.667,0.635,0.653,0.622
NCI-H1755,0.612,0.711,0.733,0.709,0.647,0.949,0.886,0.857,0.911,0.677,0.428,0.474,0.448,0.491,0.402,0.86,0.815,0.803,0.729,0.522
NCI-H1792,0.621,0.443,0.51,0.438,0.472,0.322,0.33,0.389,0.377,0.398,0.572,0.448,0.701,0.611,0.611,0.99,0.767,0.886,0.815,0.947
NCI-H1915,,0.239,,0.241,0.246,1.1,1.08,1.05,1.09,0.989,,0.518,,0.536,0.642,0.84,0.784,0.838,0.87,0.8
NCI-H1944,,0.398,,0.423,0.384,1.17,1.15,1.26,1.19,1.12,,0.295,,0.312,0.307,1.08,0.98,0.973,1.01,0.948
NCI-H1975,0.324,0.417,0.381,0.293,0.34,0.825,0.868,0.702,0.754,0.738,0.424,0.517,0.468,0.399,0.587,0.819,0.737,0.862,0.758,0.722
NCI-H1993,0.49,0.545,0.534,0.459,0.496,0.675,0.605,0.714,0.698,0.738,0.674,0.527,0.536,0.516,0.654,0.847,0.706,0.853,0.91,0.946
NCI-H2009,0.368,0.332,0.409,0.406,0.371,1.15,1.16,1.1,1.18,1.15,0.207,0.214,0.236,0.17,0.204,0.917,0.97,1.01,0.939,0.89
NCI-H2023,0.205,0.271,0.327,0.195,0.187,0.63,0.666,0.618,0.678,0.507,0.311,0.385,0.323,0.259,0.331,0.603,0.525,0.507,0.758,0.37
